Results as given in patent publication US7915268B2, “8-substituted 2-(benzimidazolyl)purine derivatives for immunosuppression” (Wyeth LLC, priority 2006, dated 2011).

biological target: T1, Jak3 (Homo sapiens, UniProt P52333); experiment: Jak3 Kinase Assay (HTRF, GST-Jak3 catalytic domain); type: biochemical; conditions: 1 μM ATP, 60-min incubation, read-out: Jak 3 (Converted)
T1 construct: catalytic domain of Jak3 (508aa to 1124aa); made in house; host or cells: Sf9 insect cells (baculovirus, pFastBac 1)
T1 sequence (P52333 508-1124): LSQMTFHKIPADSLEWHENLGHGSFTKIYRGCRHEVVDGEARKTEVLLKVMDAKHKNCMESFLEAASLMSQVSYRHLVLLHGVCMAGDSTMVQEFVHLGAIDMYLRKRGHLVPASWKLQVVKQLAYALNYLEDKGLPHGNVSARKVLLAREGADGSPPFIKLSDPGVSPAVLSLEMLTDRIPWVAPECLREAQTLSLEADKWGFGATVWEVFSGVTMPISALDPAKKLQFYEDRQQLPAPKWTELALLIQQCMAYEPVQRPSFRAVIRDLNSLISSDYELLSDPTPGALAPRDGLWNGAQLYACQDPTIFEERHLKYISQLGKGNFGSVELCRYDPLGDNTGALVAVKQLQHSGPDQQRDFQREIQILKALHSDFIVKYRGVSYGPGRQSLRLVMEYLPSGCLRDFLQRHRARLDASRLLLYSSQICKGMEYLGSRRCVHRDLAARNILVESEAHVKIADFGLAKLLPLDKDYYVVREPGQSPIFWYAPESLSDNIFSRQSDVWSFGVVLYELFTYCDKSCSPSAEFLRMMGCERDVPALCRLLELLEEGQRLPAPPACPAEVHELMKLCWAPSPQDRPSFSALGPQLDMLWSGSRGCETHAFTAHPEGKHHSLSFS
Experimental: Human Jak3 cDNA was amplified by PCR. A fragment encoding the catalytic domain of Jak3 (508aa to 1124aa) was ligated with GST at 5′ end. This fused GST-Jak3 DNA fragment was cloned into the EcoRI site of the donor plasmid pFastBac 1 (Life Technologies #10359-016). The transformation, transposition, and transfection of insect cells (Sf9) were performed according to the manufacture's instructions. The cell lysate containing recombinant GST-Jak3 was used in the kinase assay. Anti-GST antibody (10 μg/ml, Sigma #G1417) was coated onto a 384-well plate at 4° C. overnight. Cell lysate containing GST-Jak3 (1:100 dilution) was added to the anti-GST coated plates, and GST-Jak3 was captured by immobilized anti-GST antibody. Testing compounds and substrate mix (50 mM HEPES, pH 7, 0.5 mM Na3VO4, 25 mM MgCl2, 1 mM DTT, 0.005% BSA, 1 μM ATP, and 4.5 μg/ml biotinyl poly-Glu, Ala, Tyr) were added to the plate to initiate the reaction. After a 60-min incubation, the reaction was stopped by 4 mM EDTA, and phosphorylation of biotinyl poly-Glu, Ala, Tyr was detected using 17 μg/ml Cy5-streptavidin (Amersham, #PA92005) and 2.7 μg/ml Europium-conjugated anti-phosphotyrosine antibody (PerkinElmer #AD0069) using homogeneous time-resolved fluorescence (HTRF) technology.

IC50 [nM] | SMILES
< 100 | O=C(O)c1cccc(-c2nc3cnc(-n4cnc5ccc(F)cc54)nc3n2C2CCOCC2)c1 [Example 45]
< 100 | Fc1ccc2ncn(-c3ncc4nc(-c5ccco5)n(C5CCOCC5)c4n3)c2c1 [Example 35]
> 1000 | Fc1ccc2ncn(-c3ncc4nc(-c5cccc(OC(F)(F)F)c5)n(C5CCOCC5)c4n3)c2c1 [Example 58]
100 to 1000 | c1ccc(-c2nc3cnc(-n4cnc5ccccc54)nc3n2C2CCOCC2)cc1 [Example 91]
< 100 | Cc1nc2cnc(-n3cnc4ccc(F)cc43)nc2n1C1CCOCC1 [Example 72]
100 to 1000 | Fc1ccc2ncn(-c3ncc4nc(-c5nccs5)n(C5CCOCC5)c4n3)c2c1 [Example 48]
< 100 | Cc1nc2cnc(-n3cnc4ccc(Cl)cc43)nc2n1C1CCOCC1 [Example 74]
< 100 | CCCc1nc2cnc(-n3cnc4ccc(C#N)cc43)nc2n1C1CCOc2ccc(F)cc21 (stereo not drawn) [Example 22]
100 to 1000 | Cc1nc2cnc(-n3cnc4ccc(OC(F)(F)F)cc43)nc2n1[C@@H]1CCOc2c(F)cccc21 [Example 75]
< 100 | Fc1ccc2ncn(-c3ncc4nc(-c5ccc[nH]5)n(C5CCOCC5)c4n3)c2c1 [Example 62]
< 100 | N#Cc1ccc2ncn(-c3ncc4nc(Nc5cccnc5)n([C@@H]5CCOc6ccccc65)c4n3)c2c1 [Example 104]
100 to 1000 | Fc1ccc2ncn(-c3ncc4nc(Cc5ccccc5)n(C5CCOCC5)c4n3)c2c1 [Example 90, 8-Benzyl-2-(6-fluoro-1H-benzo[d]imidazol-1-yl)-9-(tetrahydro-2H-pyran-4-yl)-9H-purine]
100 to 1000 | Oc1ccccc1-c1nc2cnc(-n3cnc4ccc(F)cc43)nc2n1C1CCOCC1 [Example 44]
100 to 1000 | Oc1ccc(-c2nc3cnc(-n4cnc5ccc(F)cc54)nc3n2C2CCOCC2)cc1 [Example 54]
100 to 1000 | Fc1ccc(-c2nc3cnc(-n4cnc5ccc(F)cc54)nc3n2C2CCOCC2)nc1 [Example 68]
< 100 | N#Cc1ccc2ncn(-c3ncc4nc(-c5cnc(N)nc5)n(C5CCOCC5)c4n3)c2c1 [Example 9]
< 100 | Fc1ccc2ncn(-c3ncc4nc(-c5ccc(C(F)(F)F)nc5)n(C5CCOCC5)c4n3)c2c1 [Example 51]
100 to 1000 | Fc1cccc2c1COC[C@H]2n1c(-c2ccccc2)nc2cnc(-n3cnc4ccccc43)nc21 [Example 87]
< 100 | Fc1ccc2ncn(-c3ncc4nc(Cl)n([C@@H]5CCOc6c(F)cccc65)c4n3)c2c1 [Example 102, 8-chloro-2-(6-fluoro-1H-benzo[d]imidazol-1-yl)-9-((R)-8-fluorochroman-4-yl)-9H-purine]
< 100 | Fc1ccc2ncn(-c3ncc4nc(-c5ccc(Cl)nc5)n(C5CCOCC5)c4n3)c2c1 [Example 47]
100 to 1000 | N#Cc1ccc2ncn(-c3ncc4nc(Nc5cccc(C(F)(F)F)c5)n([C@@H]5CCOc6ccccc65)c4n3)c2c1 [Example 106]
> 1000 | Cc1nc2cnc(-n3cnc4ccccc43)nc2n1Cc1ccccc1 [Example 82]
< 100 | N#Cc1ccc2ncn(-c3ncc4nc(NC5CCCC5)n([C@@H]5CCOc6ccccc65)c4n3)c2c1 [Example 98]
< 100 | Fc1ccc2ncn(-c3ncc4nc(-c5cncnc5)n(C5CCOCC5)c4n3)c2c1 [Example 38]
100 to 1000 | Cc1cccc(-c2nc3cnc(-n4cnc5ccc(C#N)cc54)nc3n2C2CCOCC2)c1 [Example 12]
< 100 | N#Cc1ccc2ncn(-c3ncc4nc(Nc5cccnc5)n(C5CCOCC5)c4n3)c2c1 [Example 107]
< 100 | N#Cc1ccc2ncn(-c3ncc4nc(NCCN5CCCCC5)n(C5CCOCC5)c4n3)c2c1 [Example 94]
100 to 1000 | CO[C@H]1CC[C@H](n2c(C)nc3cnc(-n4cnc5ccc(C#N)cc54)nc32)CC1 [Example 23]
< 100 | Nc1nccc(-c2nc3cnc(-n4cnc5ccc(Cl)cc54)nc3n2C2CCOCC2)n1 [Example 43]
< 100 | N#Cc1ccc2ncn(-c3ncc4nc(-c5cncnc5)n([C@@H]5CCOc6c(F)cc(F)cc65)c4n3)c2c1 [Example 15]
